Results: ChEMBL document CHEMBL5608141, “Identification of compartment-specific drug sensitivities in CRC organoid-stroma co-cultures” (2024)

Key:
Type in all cases: functional, Homo sapiens
Parameters in all cases: dose or concentration left out as unconfirmed
Colon cancer organoid [1] = assay: Identification of compartment-specific drug sensitivities in O14 CRC organoid-stroma F14 CAF co-cultures. Organoid is transduced with Lucferase2-P2A-EGFP lentivirus, fibroblast with Renilla-dsRed lentivirus. Dual-Glo Luciferase assay is used to report viability data.
Colon cancer organoid [2] = assay: Identification of compartment-specific drug sensitivities in O20 CRC organoid-stroma F20 CAF co-cultures. Organoid is transduced with Lucferase2-P2A-EGFP lentivirus, fibroblast with Renilla-dsRed lentivirus. Dual-Glo Luciferase assay is used to report viability data.
Colon cancer organoid [3] = assay: Identification of compartment-specific drug sensitivities in O06 CRC organoid-stroma F06 CAF co-cultures. Organoid is transduced with Lucferase2-P2A-EGFP lentivirus, fibroblast with Renilla-dsRed lentivirus. Dual-Glo Luciferase assay is used to report viability data.
[4] = Transduced with Lucferase2-P2A-EGFP lentivirus
[5] = Transduced with Renilla-dsRed lentivirus

CC(C)(C)OC(=O)N1CCCC1CNC1CCC(c2cc(F)ccc2F)(S(=O)(=O)c2ccc(Cl)cc2)CC1 (centres undefined) [GSI-NC]
Cell Viability (Colon cancer organoid [1]; [4]): 112.017%
Cell Viability (Colon cancer organoid [1]; [5]): 95.5535%
Cell Viability (Colon cancer organoid [2]; [4]): 93.8933%
Cell Viability (Colon cancer organoid [2]; [5]): 100.789%
Cell Viability (Colon cancer organoid [3]; [4]): 96.8575%
Cell Viability (Colon cancer organoid [3]; [5]): 78.4593%

CC1(C)C(N)=Nc2cc(OCCCN3Cc4ccc(OCCc5cn(CC(=O)N6CCC(CCN7CCCC7)CC6)nn5)cc4C3)c(OCC3CC3)cc21
Cell Viability (Colon cancer organoid [1]; [4]): 112.775%
Cell Viability (Colon cancer organoid [1]; [5]): 105.217%
Cell Viability (Colon cancer organoid [2]; [4]): 95.5615%
Cell Viability (Colon cancer organoid [2]; [5]): 161.052%
Cell Viability (Colon cancer organoid [3]; [4]): 85.8179%
Cell Viability (Colon cancer organoid [3]; [5]): 109.54%

CC(=O)c1cc(-c2cc(C(=O)NC3CC3)ccc2C)c2ncccn12
Cell Viability (Colon cancer organoid [1]; [4]): 131.291%
Cell Viability (Colon cancer organoid [1]; [5]): 101.161%
Cell Viability (Colon cancer organoid [2]; [4]): 68.6867%
Cell Viability (Colon cancer organoid [2]; [5]): 121.421%
Cell Viability (Colon cancer organoid [3]; [4]): 95.4153%
Cell Viability (Colon cancer organoid [3]; [5]): 118.795%

O=C(O)CNC(=O)c1c(O)c2ccccc2n(Cc2ccccc2)c1=O
Cell Viability (Colon cancer organoid [1]; [4]): 107.659%
Cell Viability (Colon cancer organoid [1]; [5]): 95.196%
Cell Viability (Colon cancer organoid [2]; [4]): 96.6263%
Cell Viability (Colon cancer organoid [2]; [5]): 149.859%
Cell Viability (Colon cancer organoid [3]; [4]): 145.736%
Cell Viability (Colon cancer organoid [3]; [5]): 124.036%

O=C(NCc1ncc(C(F)(F)F)cc1Cl)c1ccc2c(c1)C1(CCS(=O)(=O)CC1)[C@@H](C1CC1)N2S(=O)(=O)c1ccc(F)cc1 [BAY-786]
Cell Viability (Colon cancer organoid [1]; [4]): 85.8201%
Cell Viability (Colon cancer organoid [1]; [5]): 92.0831%
Cell Viability (Colon cancer organoid [2]; [4]): 102.274%
Cell Viability (Colon cancer organoid [2]; [5]): 106.984%
Cell Viability (Colon cancer organoid [3]; [4]): 81.2723%
Cell Viability (Colon cancer organoid [3]; [5]): 52.1511%

C=CC(=O)Nc1ccc2[nH]c(=O)n(C3CCN(C(=O)c4ccc(-c5nc6cc[nH]c(=O)c6cc5-c5ccccc5)cc4)CC3)c2c1
Cell Viability (Colon cancer organoid [1]; [4]): 66.8064%
Cell Viability (Colon cancer organoid [1]; [5]): 102.36%
Cell Viability (Colon cancer organoid [2]; [4]): 102.668%
Cell Viability (Colon cancer organoid [2]; [5]): 80.5582%
Cell Viability (Colon cancer organoid [3]; [4]): 100.634%
Cell Viability (Colon cancer organoid [3]; [5]): 129.997%

C[C@@H](NC(=O)Nc1cc2[nH]ncc2c(CO)n1)c1ccccc1 [ERKi]
Cell Viability (Colon cancer organoid [1]; [4]): 56.1161%
Cell Viability (Colon cancer organoid [1]; [5]): 76.4372%
Cell Viability (Colon cancer organoid [2]; [4]): 50.0756%
Cell Viability (Colon cancer organoid [2]; [5]): 135.339%
Cell Viability (Colon cancer organoid [3]; [4]): 82.7933%
Cell Viability (Colon cancer organoid [3]; [5]): 113.572%

C=CC(=O)Nc1cccc(C(=O)Nc2ccc(Nc3cc(-c4[nH]c(SC)nc4C)ccn3)cc2)c1
Cell Viability (Colon cancer organoid [1]; [4]): 116.406%
Cell Viability (Colon cancer organoid [1]; [5]): 116.909%
Cell Viability (Colon cancer organoid [2]; [4]): 175.79%
Cell Viability (Colon cancer organoid [2]; [5]): 71.728%
Cell Viability (Colon cancer organoid [3]; [4]): 87.3077%
Cell Viability (Colon cancer organoid [3]; [5]): 89.5907%

CCCc1cc(C)[nH]c(=O)c1CNC(=O)c1cc(-c2ccnc(N3CCN(C)CC3)c2)cc2c1cnn2C(C)C
Cell Viability (Colon cancer organoid [1]; [4]): 87.4027%
Cell Viability (Colon cancer organoid [1]; [5]): 100.827%
Cell Viability (Colon cancer organoid [2]; [4]): 56.2508%
Cell Viability (Colon cancer organoid [2]; [5]): 146.305%
Cell Viability (Colon cancer organoid [3]; [4]): 75.6598%
Cell Viability (Colon cancer organoid [3]; [5]): 125.188%

Cc1ccc2nc(CNCCCOc3ccccc3)cc(O)c2c1 [UCSF924]
Cell Viability (Colon cancer organoid [1]; [4]): 102.025%
Cell Viability (Colon cancer organoid [1]; [5]): 95.7371%
Cell Viability (Colon cancer organoid [2]; [4]): 115.834%
Cell Viability (Colon cancer organoid [2]; [5]): 125.381%
Cell Viability (Colon cancer organoid [3]; [4]): 107.729%
Cell Viability (Colon cancer organoid [3]; [5]): 156.395%

C[C@@H]1CC(=O)Nc2cccc(-c3ccc4c(c3)c(-c3cnn(C)c3)nn4C)c2N1
Cell Viability (Colon cancer organoid [1]; [4]): 127.46%
Cell Viability (Colon cancer organoid [1]; [5]): 126.975%
Cell Viability (Colon cancer organoid [2]; [4]): 69.4002%
Cell Viability (Colon cancer organoid [2]; [5]): 148.573%
Cell Viability (Colon cancer organoid [3]; [4]): 96.7982%
Cell Viability (Colon cancer organoid [3]; [5]): 166.358%

CNc1nc(Nc2cnn([C@H]3CCN(C4COC4)C[C@@H]3F)c2Cl)ncc1C(F)(F)F
Cell Viability (Colon cancer organoid [1]; [4]): 109.423%
Cell Viability (Colon cancer organoid [1]; [5]): 94.4968%
Cell Viability (Colon cancer organoid [2]; [4]): 197.594%
Cell Viability (Colon cancer organoid [2]; [5]): 86.9942%
Cell Viability (Colon cancer organoid [3]; [4]): 94.4056%
Cell Viability (Colon cancer organoid [3]; [5]): 87.0484%

O=C(NCCCN1CCOC1=O)c1cnc(NCc2cc(Br)ccc2Br)nc1NC1CCCC1
Cell Viability (Colon cancer organoid [1]; [4]): 120.927%
Cell Viability (Colon cancer organoid [1]; [5]): 72.8786%
Cell Viability (Colon cancer organoid [2]; [4]): 103.947%
Cell Viability (Colon cancer organoid [2]; [5]): 94.0994%
Cell Viability (Colon cancer organoid [3]; [4]): 72.4903%
Cell Viability (Colon cancer organoid [3]; [5]): 99.9468%

COc1ccc2c(c1)O[C@@H](c1ccc(OC)c(OC)c1)C[C@H]2NC(=O)C1(c2ccc3c(c2)OC(F)(F)O3)CC1 [A-1596586]
Cell Viability (Colon cancer organoid [1]; [4]): 83.2966%
Cell Viability (Colon cancer organoid [1]; [5]): 94.4694%
Cell Viability (Colon cancer organoid [2]; [4]): 84.651%
Cell Viability (Colon cancer organoid [2]; [5]): 101.93%
Cell Viability (Colon cancer organoid [3]; [4]): 95.9961%
Cell Viability (Colon cancer organoid [3]; [5]): 117.187%

Cc1c(C(=O)O)cc(-c2ccc(C3CCNCC3)cc2)c2ccc(-c3ccc(C(F)(F)F)cc3)cc12.Cl
Cell Viability (Colon cancer organoid [1]; [4]): 68.1012%
Cell Viability (Colon cancer organoid [1]; [5]): 79.713%
Cell Viability (Colon cancer organoid [2]; [4]): 115.772%
Cell Viability (Colon cancer organoid [2]; [5]): 99.1911%
Cell Viability (Colon cancer organoid [3]; [4]): 69.2582%
Cell Viability (Colon cancer organoid [3]; [5]): 93.9723%

C[C@@H]1CCc2ncc(F)cc2[C@H]2CCCN2c2ccn3ncc(c3n2)C(=O)N1 [SELITRECTINIB]
Cell Viability (Colon cancer organoid [1]; [4]): 99.8274%
Cell Viability (Colon cancer organoid [1]; [5]): 100.464%
Cell Viability (Colon cancer organoid [2]; [4]): 168.559%
Cell Viability (Colon cancer organoid [2]; [5]): 73.3915%
Cell Viability (Colon cancer organoid [3]; [4]): 101.733%
Cell Viability (Colon cancer organoid [3]; [5]): 118.761%

CN(C)CC#Cc1ccc(OCCCc2sc(N3CCc4cccc(C(=O)Nc5nc6ccccc6s5)c4C3)nc2C(=O)O)c(F)c1 [A-1155463]
Cell Viability (Colon cancer organoid [1]; [4]): 2.034%
Cell Viability (Colon cancer organoid [1]; [5]): 67.3537%
Cell Viability (Colon cancer organoid [2]; [4]): 1.1769%
Cell Viability (Colon cancer organoid [2]; [5]): 177.943%
Cell Viability (Colon cancer organoid [3]; [4]): 0.3385%
Cell Viability (Colon cancer organoid [3]; [5]): 128.541%

Cc1ncsc1-c1ccc(CNC(=O)[C@@H]2C[C@@H](O)CN2C(=O)[C@@H](NC(=O)CCCCNC(=O)c2ccc(-c3ccc(N4CCN(C)CC4)c(NC(=O)c4c[nH]c(=O)cc4C(F)(F)F)c3)cc2)C(C)(C)C)cc1
Cell Viability (Colon cancer organoid [1]; [4]): 124.425%
Cell Viability (Colon cancer organoid [1]; [5]): 102.442%
Cell Viability (Colon cancer organoid [2]; [4]): 172.591%
Cell Viability (Colon cancer organoid [2]; [5]): 86.697%
Cell Viability (Colon cancer organoid [3]; [4]): 81.8894%
Cell Viability (Colon cancer organoid [3]; [5]): 85.2238%

COc1ccccc1S(=O)(=O)Nc1ccc2c(c1)CN(C)C(=O)N2
Cell Viability (Colon cancer organoid [1]; [4]): 127.49%
Cell Viability (Colon cancer organoid [1]; [5]): 84.3735%
Cell Viability (Colon cancer organoid [2]; [4]): 112.453%
Cell Viability (Colon cancer organoid [2]; [5]): 99.8859%
Cell Viability (Colon cancer organoid [3]; [4]): 75.1061%
Cell Viability (Colon cancer organoid [3]; [5]): 112.248%

CC1CCN(c2ccnc(NCc3cn(C)cn3)n2)CC1 [TP-040]
Cell Viability (Colon cancer organoid [1]; [4]): 70.4837%
Cell Viability (Colon cancer organoid [1]; [5]): 82.5883%
Cell Viability (Colon cancer organoid [2]; [4]): 75.5826%
Cell Viability (Colon cancer organoid [2]; [5]): 95.0735%
Cell Viability (Colon cancer organoid [3]; [4]): 104.895%
Cell Viability (Colon cancer organoid [3]; [5]): 163.738%

CCOc1cc(N2CCC(O)CC2)ccc1Nc1ncc2c(n1)N(C)c1ccccc1C(=O)N2C
Cell Viability (Colon cancer organoid [1]; [4]): 113.616%
Cell Viability (Colon cancer organoid [1]; [5]): 107.398%
Cell Viability (Colon cancer organoid [2]; [4]): 81.3429%
Cell Viability (Colon cancer organoid [2]; [5]): 117.331%
Cell Viability (Colon cancer organoid [3]; [4]): 85.6087%
Cell Viability (Colon cancer organoid [3]; [5]): 128.987%

CCn1cc(-c2ccnc3[nH]c(-c4cccc(CN(C)C)c4)cc23)c(-c2ccc(NC(=O)N(C)C)cc2)n1 [GSK-1070916]
Cell Viability (Colon cancer organoid [1]; [4]): 13.7383%
Cell Viability (Colon cancer organoid [1]; [5]): 103.854%
Cell Viability (Colon cancer organoid [2]; [4]): 9.494%
Cell Viability (Colon cancer organoid [2]; [5]): 207.056%
Cell Viability (Colon cancer organoid [3]; [4]): 8.589%
Cell Viability (Colon cancer organoid [3]; [5]): 116.692%

Cn1cc(CCn2cnc(-c3cnn(C)c3)c2-c2ccc(C#N)cc2)cn1
Cell Viability (Colon cancer organoid [1]; [4]): 93.9691%
Cell Viability (Colon cancer organoid [1]; [5]): 90.5921%
Cell Viability (Colon cancer organoid [2]; [4]): 163.337%
Cell Viability (Colon cancer organoid [2]; [5]): 107.326%
Cell Viability (Colon cancer organoid [3]; [4]): 101.212%
Cell Viability (Colon cancer organoid [3]; [5]): 117.261%

CNC(=O)c1cc(C(=O)NC2CC2)cn(Cc2ccccc2)c1=O [GSK620]
Cell Viability (Colon cancer organoid [1]; [4]): 84.0371%
Cell Viability (Colon cancer organoid [1]; [5]): 91.229%
Cell Viability (Colon cancer organoid [2]; [4]): 93.0444%
Cell Viability (Colon cancer organoid [2]; [5]): 100.747%
Cell Viability (Colon cancer organoid [3]; [4]): 111.223%
Cell Viability (Colon cancer organoid [3]; [5]): 132.009%
